Laboratory results from patent publication US11213497B2, “Antibiofilm formulations” (ARIZONA BOARD OF REGENTS ON BEHALF OF NORTHERN ARIZONA …, priority 2017, dated 2022).

Columns and labels:
[1] = tested on: MSSA; test: MBEC of geranic acid in solution (Hepes buffer); type: cell-based, Staphylococcus aureus; conditions: 50 mM Hepes buffer
Description: Neutral species in DES may be uniquely important to potentiate otherwise bioactive IL. […] At this pH, most of the acid is expected to be found in the protonated state (pKa is ˜5-5.5 according to the literature). […] Many different DES can be envisioned with this same platform of 1:1 anion:cation as an EPS disruptor/delivery agent with a neutral acid (or even a completely neutral species such as an isoprenoid hydrocarbon) as a molecule designed to saturate both leaflets of a cellular membrane.

[2] = according to the literature; cited from earlier work
[3] = tested on: MSSA biofilms
Description: Biofilms of Methicillin-sensitive Staphylococcus aureus (MSSA) were established on the pegs of a biofilm inoculator (Innovotech) according to the manufacturer's instructions. Briefly, a bacterial colony of MSSA was inoculated from an agar streak plate into cation-adjusted Mueller-Hinton broth (5 mL) and grown to confluence overnight in a shaker incubator (37° C., 200 rpm). The confluent culture was then diluted into fresh media (1:100, v:v), and grown to an optical density (OD) of 0.4 (approximately three hours). At this time, the cultures were again diluted into fresh media (1:50, v:v) and 200 μL of the resultant dilution were placed into each well of an Innovotech 96 well biofilm inoculator plate. The inoculator was added to the wells of the culture plate and it was placed in a shaker incubator overnight (37° C., 150 rpm). The spent media was decanted each morning and refreshed with equal volumes of new media, and the inoculator was again placed in a shaker incubator overnight (37° C., 150 rpm). […]
A 10% (v:v) stock solution of each DES in CAMHB was serially diluted into fresh CAMHB in the wells of a 96 well plate. […] MSSA cells were allowed to grow overnight in the shaker incubator and viability was assessed via measurement of optical density at 600 nm using a plate reader (Synergy HT). […]

[4] = tested on: mammalian skin cell lines

## CC(C)=CCC/C(C)=C/C(=O)O [geranic acid]
[1]; pH=6.4, 0.1% Tween 20
  MBEC: 2.5 % in water
[1]; pH=8.4, 0.1% Tween 20
  MBEC: > 10%
[2]
  pKa: 5-5.5

## Choline Geranate Ionic Liquid [2; CAGE (1:1)]
[3]; 2-hour challenge, 72 hr MSSA biofilms, dilutions in CAMHB 0.313-10% (v:v)
  MBEC (% by volume): 5-10 % by volume
[3]; in water
  MBEC against MSSA: 5-10%

## choline geranate [CAGE]
[4]
  Toxicity to mammalian skin cell lines: generally non-toxic to mammalian skin cell lines
